From PMC7913925, “Design and Evaluation of a Polypeptide That Mimics the Integrin Binding Site for EDA Fibronectin to Block Profibrotic Cell Activity” (International Journal of Molecular Sciences, 2021)
One block for each molecule: values may come before it. Bridges are numbered along the chain shown (N, C = ends). Where no end group is shown, it is not given here.

Key:
[1] = tested on: fixed ECM of fibroblasts or differentiated myofibroblasts; assay: AF38Pep-Cy5 labelling of ECM vs FN1 immunostaining; format: cell-based
Experimental: A solution containing 1:1 molar ratio of AF38Pep to non-sulphated Cy5-NHS-ester (APExBIO, Houston, TX, USA) was incubated overnight in RT, shielded from light and under constant mixing. The following day, the solution was passed through a PD-10 Sephadex G-25 M gel filtration column (GE Healthcare, Chicago, IL, USA) into PBS. The first 3 fractions (highest molecular weight) were collected, dialyzed (membrane MWCO 1 kDa) against ddH2O overnight, and concentrated by vacuum centrifuge at 3000 rpm at 60 °C for 3 h. Fibroblasts were grown to 70% confluence in 12-well tissue culture plates, before growth arrest in serum-free DMEM for 48 h. […] Any AF38Pep-Cy5 that remained bound to EDA-FN was assessed using an IVIS imaging system (Caliper Life Sciences, PerkinElmer, Hopkinton, MA, USA) set to detect Cy5.5 epifluorescence after excitation at 640 nm. Epifluorescence was quantified using Living Image v4.2 analysis software (Caliper Life Sciences).
Cells were grown to 40% confluence in 8-well glass chamber slides (Nunc, Thermo Fisher Scientific), prior to growth arrest and treatment. […] Cells were then mounted in DAPI Fluoromount-G (Thermo Fisher Scientific) and imaged using a Zeiss Axio Imager Z1 UV fluorescence microscope (Zeiss, Jena, Germany) and a Leica TCS SP5 laser scanning confocal microscope (Leica Biosystems, Baden-Württemberg, Germany).

[2] = tested on: EDA-FN ECM of TGF-β1-treated fibroblasts; assay: Epifluorescence assay of AF38Pep-Cy5 binding to fibrotic ECM (IVIS); format: cell-based; conditions: AF38Pep-Cy5 10 µg/mL
Experimental: (§1) A solution containing 1:1 molar ratio of AF38Pep to non-sulphated Cy5-NHS-ester (APExBIO, Houston, TX, USA) was incubated overnight in RT, shielded from light and under constant mixing. The following day, the solution was passed through a PD-10 Sephadex G-25 M gel filtration column (GE Healthcare, Chicago, IL, USA) into PBS. The first 3 fractions (highest molecular weight) were collected, dialyzed (membrane MWCO 1 kDa) against ddH2O overnight, and concentrated by vacuum centrifuge at 3000 rpm at 60 °C for 3 h. Fibroblasts were grown to 70% confluence in 12-well tissue culture plates, before growth arrest in serum-free DMEM for 48 h. Cells were then treated with 10 ng/mL TGF-β1 for 0, 24, 48 and 72 h. The conjugated AF38Pep-Cy5 was added to the plate wells at 10 µg/mL and was incubated for 2 h. The culture medium was removed, and cells were washed three times with PBS before replenishment with fresh serum-free DMEM. Any AF38Pep-Cy5 that remained bound to EDA-FN was assessed using an IVIS imaging system (Caliper Life Sciences, PerkinElmer, Hopkinton, MA, USA) set to detect Cy5.5 epifluorescence after excitation at 640 nm. Epifluorescence was quantified using Living Image v4.2 analysis software (Caliper Life Sciences).

[3] = tested on: EDA-FN in fixed fibroblast or myofibroblast ECM; assay: Competitive labelling of fixed matrices, AF38Pep-Cy5 and IST-9; format: cell-based
Experimental: as §1
Cells were grown to 40% confluence in 8-well glass chamber slides (Nunc, Thermo Fisher Scientific), prior to growth arrest and treatment. Cells were washed with PBS before fixation in 4% paraformaldehyde for 10 min at room temperature. Next, cells were permeabilized with 0.1% (v/v) Triton X-100 in PBS for 10 min at room temperature. For visualization of ECM, cells were fixed with 100% ice-cold methanol for 8 min at −20 °C. Slides were washed with PBS and blocked with 1% goat serum (TBD Science, Tianjin, China) for 30 min before washing with 0.1% (w/v) BSA in PBS. […] Cells were then mounted in DAPI Fluoromount-G (Thermo Fisher Scientific) and imaged using a Zeiss Axio Imager Z1 UV fluorescence microscope (Zeiss, Jena, Germany) and a Leica TCS SP5 laser scanning confocal microscope (Leica Biosystems, Baden-Württemberg, Germany).

[4] = biological target: integrin α4 protein (ITGA4) (not stated (endogenous in fibroblasts; mouse NIH/3T3 and human HFL1 cells were cultured)) (UniProt Q00651); conditions: scale: % of that observed in cells that only received TGF-β1 treatment
integrin α4 protein (ITGA4) (not stated (endogenous in fibroblasts; mouse NIH/3T3 and human HFL1 cells were cultured)), sequence (Q00651 41-1039): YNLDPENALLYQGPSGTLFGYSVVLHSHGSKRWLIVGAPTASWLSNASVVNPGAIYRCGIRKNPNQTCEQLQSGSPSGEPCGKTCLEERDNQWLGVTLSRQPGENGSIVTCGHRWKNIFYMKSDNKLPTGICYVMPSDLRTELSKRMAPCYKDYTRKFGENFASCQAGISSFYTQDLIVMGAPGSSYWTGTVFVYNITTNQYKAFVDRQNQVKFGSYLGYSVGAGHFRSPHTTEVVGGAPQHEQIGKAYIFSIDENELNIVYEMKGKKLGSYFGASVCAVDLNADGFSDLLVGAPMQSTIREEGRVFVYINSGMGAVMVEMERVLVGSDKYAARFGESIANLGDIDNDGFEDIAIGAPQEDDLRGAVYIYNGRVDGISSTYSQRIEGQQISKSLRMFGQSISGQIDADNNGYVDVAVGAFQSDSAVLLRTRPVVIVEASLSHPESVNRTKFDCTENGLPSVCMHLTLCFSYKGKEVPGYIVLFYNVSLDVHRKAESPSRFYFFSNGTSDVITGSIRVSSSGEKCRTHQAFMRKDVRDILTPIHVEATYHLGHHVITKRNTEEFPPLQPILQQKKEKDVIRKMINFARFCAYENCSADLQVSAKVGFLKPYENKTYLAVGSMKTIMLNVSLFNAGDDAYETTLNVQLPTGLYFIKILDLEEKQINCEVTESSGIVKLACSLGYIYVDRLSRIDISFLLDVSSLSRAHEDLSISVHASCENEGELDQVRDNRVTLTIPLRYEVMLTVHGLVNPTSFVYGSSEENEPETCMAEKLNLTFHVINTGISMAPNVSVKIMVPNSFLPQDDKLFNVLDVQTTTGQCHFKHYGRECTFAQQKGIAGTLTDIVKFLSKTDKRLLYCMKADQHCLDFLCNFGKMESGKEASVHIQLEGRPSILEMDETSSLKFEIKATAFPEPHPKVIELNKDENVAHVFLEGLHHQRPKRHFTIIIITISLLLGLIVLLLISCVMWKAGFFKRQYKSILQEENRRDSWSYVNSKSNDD

[5] = biological target: T1, antifibrotic 38-amino-acid polypeptide (AF38Pep) (disulfide bridge between the two cysteines); assay: ITC; 15 µM AF38Pep in the chamber well, 300 µM small peptide in the injection needle; 25 °C; HEPES buffered saline (140 mM NaCl, 1.5 mM Na2HPO4, 50 mM HEPES; pH 7); MicroCal iTC200; one set of sites model with number of binding sites assumed to be 1; conditions: both partners purified
T1 construct: two stretches derived from integrins β1 and α4, linked by a serine; Design contains the ISTTPAK motif of integrin β1/β7 and the KNENKI motif of integrin α4; source: synthetic peptide (ChinaPeptides)
T1 peptide: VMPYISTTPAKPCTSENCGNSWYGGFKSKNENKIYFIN

[6] = biological target: T2, FN-EDA, a peptide sharing amino acid sequence with the C-C′ loop of EDA-FN; assay: ITC
T2 peptide: TYSSPEDGIHEL

[7] = biological target: T2, FN-EDA, a peptide sharing amino acid …; assay: ITC

Molecule: AF38Pep-Cy5: AF38Pep conjugated to Cy5 dye (non-sulphated Cy5-NHS-ester) (VMPYISTTPAKPCTSENCGNSWYGGFKSKNENKIYFIN; disulfide 13-18 (inferred); also: Cy5 label, site not given here)
AF38Pep-Cy5 colocalization with FN1 staining, myofibroblast ECM ([1]; differentiated myofibroblasts): colocalization with anti-FN1 staining (yellow) was prominent in areas of fibronectin deposition at cell membranes | AF38Pep-Cy5 staining of fibroblast ECM ([1]; untreated control fibroblasts): little to no staining | binding to fibrotic ECM with TGF-β1 treatment time ([2]; TGF-β1 10 ng/mL for 24, 48, 72 h): increased binding of AF38Pep to the fibrotic ECM, which correlated with the increasing time of TGF-β1 treatment | binding at 48 h vs 0 h TGF-β1 treatment ([2]; mean ± S.E., three experiments): significant increases in binding at 48 h | staining of fibroblast matrices, IST-9 or AF38Pep-Cy5 ([3]; fibroblasts, regardless of the order of addition): minimal, regardless of the order of addition to cells | blocking of IST-9 staining by AF38Pep-Cy5 pretreatment ([3]; myofibroblasts, AF38Pep-Cy5 first, then IST-9): pre-treatment blocked IST-9 staining | labelling of EDA-FN after IST-9 pretreatment ([3]; myofibroblasts, IST-9 first, then AF38Pep-Cy5): failed to label the elevated EDA-FN production

Molecule: VMPYISTTPAKPCTSENCGNSWYGGFKSKNENKIYFIN (designed binder, disulfide 13-18 (inferred)) [antifibrotic 38-amino-acid polypeptide (AF38Pep)]
Ka [6]: 1.11e+06 M⁻¹ | Kd [7]: 858 nM

Continued, values first:

total collagen synthesis (hydroxyproline assay) of NIH/3T3 cells after 48 h of TGF-β1 with AF38Pep as blocker, relative to TGF-β1 alone [4]: 60
Molecule: extra domain A containing fibronectin (EDA-FN) (from UniProt P11276 33-2477) (natural protein)

binding result [5]: binds
B1: FN-EDA, a peptide sharing amino acid sequence with the C-C′ loop of EDA-FN (peptide)
peptide: TYSSPEDGIHEL
notes: 12-residue stretch of the C-C′ loop of extra domain A (EDA) of fibronectin; also called fibronectin EDA-peptide; EDA-FN C-C′ loop peptide; source: synthetic peptide (ChinaPeptides)
